# Tested on: hypertensive subjects
# Assay: 24-hour ambulatory blood pressure monitoring (ABPM), incl. nighttime dip
# Type: in vivo, human
# Details: Part 1; for LSM Δ with Placebo, 24-hr DBP (ABPM, ANCOVA) / LSM Δ with Placebo, 24-hr Mean MAP (ABPM, ANCOVA) / LSM Δ with Placebo, 24-hr SBP (ABPM, ANCOVA) / LSM Δ with Placebo, Daytime Mean DBP (ABPM, ANCOVA) / LSM Δ with Placebo, Daytime Mean SBP (ABPM, ANCOVA) / LSM Δ with Placebo, Mean Central DBP (ABPM, ANCOVA) / LSM Δ with Placebo, Mean Central Mean BP (ABPM, ANCOVA) / LSM Δ with Placebo, Mean Central SBP (ABPM, ANCOVA) / LSM Δ with Placebo, Nighttime Mean DBP (ABPM, ANCOVA) / LSM Δ with Placebo, Nighttime Mean SBP (ABPM, ANCOVA): End of Treatment, FAS post-hoc
# Experimental: Ambulatory blood pressure monitoring was accomplished with an ambulatory blood pressure monitoring device that consists of a blood pressure cuff worn on a subject's arm attached to a small recording device that is typically attached to the subject's belt or waistband.
# The ABPM device is worn for 24 hours. Throughout that period, the device records the subject's blood pressure at regular intervals, during the subject's routine daily activities and while they are sleeping. The ABPM thus provides a complete record of the subject's blood pressure over a 24-hour period.
# 24-hour ABPM was measured in the clinic at baseline and Study Week 7. If, for any reason, the ABPM procedure was deemed a failure at the end of Study Week 7, it may have been repeated at Study Week 8 and therefore no imputation was employed regardless of use of rescue medications. Additionally, ABPM was also collected at the end of Study Week 4 in Part 2. If a repeat test was performed, it supersedes the original test results for that visit.
# Specific derived variables based on ABPM measurements include mean 24-hour, mean Daytime, and mean Nighttime of SBP, DBP, and heart rate.
# Change from baseline to Week 7 in 24-hour mean SBP (and DBP) based on ABPM will be analyzed using an ANCOVA with a term for treatment group and a baseline mean 24-hour value as a covariate.
# The nighttime dip is defined as
# 100%×(mean daytime SBP−mean nighttime SBP)/mean daytime SBP
# It is expressed as a percentage and is summarized by treatment group and visit using descriptive statistics. In addition, the number and percentage of subjects with nighttime dip in each of the dipper categories (Bloomfield & Park, 2015) is presented by treatment group and visit. The categories are: • (a) <10% • (b) 10-20% inclusive • (c) >20%
# Secondary endpoints of this study were: • (a) Change in 24-hour ambulatory blood pressure monitoring (ABPM) parameters (systolic and diastolic) from baseline to the end of Study Week 7. • (b) Change in office-measured SBP from baseline to the end of Study Weeks 1, 2, 3, 4, 5, 6, and 7. • (c) Change in office-measured diastolic blood pressure (DBP) from baseline to the end of Study Weeks 1, 2, 3, 4, 5, 6, 7, and 8. • (d) Proportion of subjects who achieve office-measured BP of ≤130/80 mm Hg by the end of Study Week 8.
structure (smiles),measurement,setting,value
CC(=O)N[C@H]1CC[C@H](NC(=O)CN2CCN(c3nncc(-c4ccc(C)cc4)n3)CC2)CC1 [Compound A HBr],"LSM Δ with Placebo, 24-hr DBP (ABPM, ANCOVA)",12.5 mg BID,−4.24 mmHg
same,"LSM Δ with Placebo, 24-hr Mean MAP (ABPM, ANCOVA)",12.5 mg BID,−4.58 mmHg
same,"LSM Δ with Placebo, 24-hr SBP (ABPM, ANCOVA)",12.5 mg BID,−4.76 mmHg
same,"LSM Δ with Placebo, Daytime Mean DBP (ABPM, ANCOVA)",12.5 mg BID,−4.19 mmHg
same,"LSM Δ with Placebo, Daytime Mean SBP (ABPM, ANCOVA)",12.5 mg BID,−4.96 mmHg
same,"LSM Δ with Placebo, Mean Central DBP (ABPM, ANCOVA)",12.5 mg BID,−4.85 mmHg
same,"LSM Δ with Placebo, Mean Central Mean BP (ABPM, ANCOVA)",12.5 mg BID,−6.08 mmHg
same,"LSM Δ with Placebo, Mean Central SBP (ABPM, ANCOVA)",12.5 mg BID,−7.19 mmHg
same,"LSM Δ with Placebo, Nighttime Mean DBP (ABPM, ANCOVA)",12.5 mg BID,−3.92 mmHg
same,"LSM Δ with Placebo, Nighttime Mean SBP (ABPM, ANCOVA)",12.5 mg BID,−3.9 mmHg
same,"24-hr Mean DBP (ABPM), Mean (SD)","12.5 mg BID, EoT, FAS",77.63 (11.03) mmHg
same,"24-hr Mean MAP (ABPM), Mean (SD)","12.5 mg BID, EoT, FAS",105.41 (12.62) mmHg
same,"24-hr Mean SBP (ABPM), Mean (SD)","12.5 mg BID, EoT, FAS",133.19 (14.86) mmHg
same,"Daytime Mean DBP (ABPM), Mean (SD)","12.5 mg BID, EoT, FAS",79.69 (10.81) mmHg
same,"Daytime Mean SBP (ABPM), Mean (SD)","12.5 mg BID, EoT, FAS",135.38 (14.97) mmHg
same,"Nighttime Mean DBP (ABPM), Mean (SD)","12.5 mg BID, EoT, FAS",72.44 (12.25) mmHg
same,"Nighttime Mean SBP (ABPM), Mean (SD)","12.5 mg BID, EoT, FAS",126.81 (16.69) mmHg
same,Subjects with nighttime dip 10-20% in 24-hour systolic ABPM,"12.5 mg BID, EoT, FAS",5 (31.3) n (%)
same,Subjects with nighttime dip <10% in 24-hour systolic ABPM,"12.5 mg BID, EoT, FAS",11 (68.8) n (%)
same,Subjects with nighttime dip >20% in 24-hour systolic ABPM,"12.5 mg BID, EoT, FAS",0 n (%)
same,"24-hr Mean DBP (ABPM) CFB to EoT, Mean (SD)","12.5 mg BID, FAS",−5.38 (8.59) mmHg
same,"24-hr Mean MAP (ABPM) CFB to EoT, Mean (SD)","12.5 mg BID, FAS",−5.53 (10.63) mmHg
same,"24-hr Mean SBP (ABPM) CFB to EoT, Mean (SD)","12.5 mg BID, FAS",−5.69 (12.90) mmHg
same,"Daytime Mean DBP (ABPM) CFB to EoT, Mean (SD)","12.5 mg BID, FAS",−4.25 (9.64) mmHg
same,"Daytime Mean SBP (ABPM) CFB to EoT, Mean (SD)","12.5 mg BID, FAS",−4.06 (14.48) mmHg
same,"Nighttime Mean DBP (ABPM) CFB to EoT, Mean (SD)","12.5 mg BID, FAS",−6.00 (10.17) mmHg
same,"Nighttime Mean SBP (ABPM) CFB to EoT, Mean (SD)","12.5 mg BID, FAS",−7.50 (16.17) mmHg
same,"LSM Δ with Placebo, 24-hr DBP (ABPM, ANCOVA)",12.5 mg QD,−1.44 mmHg
same,"LSM Δ with Placebo, 24-hr Mean MAP (ABPM, ANCOVA)",12.5 mg QD,−1.62 mmHg
same,"LSM Δ with Placebo, 24-hr SBP (ABPM, ANCOVA)",12.5 mg QD,−1.5 mmHg
same,"LSM Δ with Placebo, Daytime Mean DBP (ABPM, ANCOVA)",12.5 mg QD,−2.47 mmHg
same,"LSM Δ with Placebo, Daytime Mean SBP (ABPM, ANCOVA)",12.5 mg QD,−2.14 mmHg
same,"LSM Δ with Placebo, Mean Central DBP (ABPM, ANCOVA)",12.5 mg QD,−1.29 mmHg
same,"LSM Δ with Placebo, Mean Central Mean BP (ABPM, ANCOVA)",12.5 mg QD,0.06 mmHg
same,"LSM Δ with Placebo, Mean Central SBP (ABPM, ANCOVA)",12.5 mg QD,1.92 mmHg
same,"LSM Δ with Placebo, Nighttime Mean DBP (ABPM, ANCOVA)",12.5 mg QD,−1.53 mmHg
same,"LSM Δ with Placebo, Nighttime Mean SBP (ABPM, ANCOVA)",12.5 mg QD,−0.21 mmHg
same,"24-hr Mean DBP (ABPM), Mean (SD)","12.5 mg QD, EoT, FAS",79.93 (7.33) mmHg
same,"24-hr Mean MAP (ABPM), Mean (SD)","12.5 mg QD, EoT, FAS",109.47 (10.81) mmHg
same,"24-hr Mean SBP (ABPM), Mean (SD)","12.5 mg QD, EoT, FAS",139.00 (16.31) mmHg
same,"Daytime Mean DBP (ABPM), Mean (SD)","12.5 mg QD, EoT, FAS",81.53 (6.79) mmHg
